Test results from patent US8674095B2, “Compounds for treating neuropsychiatric conditions” (Afraxis Holdings, Inc., priority 2008, dated 2014).

Experiments:
Assay type in all cases: biochemical
PAK1, PAK2, PAK3, PAK-4 = assay: PAK isoform inhibition profile of example compounds; conditions: classification of example compounds in the description; underlying IC50 data in Table 8
Excerpt: In some embodiments, the PAK inhibitor is a Group I PAK inhibitor that inhibits, for example, one or more Group I PAK polypeptides, for example, PAK1, PAK2, and/or PAK3. […] In some embodiments, the PAK inhibitor is a PAK2 inhibitor. In some embodiments, the PAK inhibitor is a PAK3 inhibitor. In some embodiments, the PAK inhibitor is a mixed PAK1/PAK3 inhibitor. […] In some embodiments, the PAK inhibitor is a Group II PAK inhibitor that inhibits one or more Group II PAK polypeptides, for example PAK-4, PAK5, and/or PAK6. In some embodiments, the PAK inhibitor is a PAK4 inhibitor. In some embodiments, the PAK inhibitor is a PAK5 inhibitor. In some embodiments, the PAK inhibitor is a PAK6 inhibitor.
(§1) A fluorescence-based assay format is used to determine IC50 values of test compounds in vitro. Purified PAK kinase is incubated with ATP, and a test compound at various concentrations and a substrate peptide containing two fluorophores. In a second step, the reaction mix is incubated with a site-specific protease that cleaves non-phosphorylated but not phosphorylated substrate peptide, disrupting the FRET signal generated by the two fluorophores in the cleaved peptide (Z′Lyte™ Kinase assay platform; Life Technologies).
(§2) Reagents: 50 mM HEPES, pH 7.5; 0.01% BRIJ-35; 10 mM MgCl2; 1 mM EGTA, 2 uM substrate peptide Ser/Thr20 (proprietary Life Technologies Sequence), PAK enzyme [2.42-30.8 ng for PAK1, 0.29-6 ng for PAK2, 1.5-20 ng for PAK3 and 0.1-0.86 ng for PAK4; actual enzyme amounts depend on lot activity of the enzyme preparation]
(§3) Test compounds are dissolved in DMSO at various concentrations; the final DMSO concentration in the assay reaction is 1%.
(§4) ATP concentration at Km apparent is used in the assay [50 μM ATP for PAK1 assay, 75 μM ATP for PAK2 assay, 100 μM ATP for PAK3 assay, 5 μM ATP for PAK-4 assay] in a total assay volume of […] Assay reactions are incubated at room temperature for 1 hr. Following the kinase reaction, 5 μl of 1:256 dilution of development solution A (Life Technologies) is added and the reaction mix is incubated for an additional 1 hr at room temperature.
(§5) Plates are analyzed in a standard fluorescence plate reader (Tecan or equivalent) using an excitation wavelength of 400 nm and emission wavelengths of 445 nm and 520 nm. Inhibition of kinase reaction is determined by emission ratio=emission@445 nm/emission@520 nm

PAK2 = PAK2 (Homo sapiens, UniProt Q13177); assay: Z'Lyte fluorescence-based (FRET) kinase assay, PAK2; conditions: 75 μM ATP (Km apparent), 1 hr room temperature, 1% DMSO
Chain of PAK2 (Q13177 whole entry): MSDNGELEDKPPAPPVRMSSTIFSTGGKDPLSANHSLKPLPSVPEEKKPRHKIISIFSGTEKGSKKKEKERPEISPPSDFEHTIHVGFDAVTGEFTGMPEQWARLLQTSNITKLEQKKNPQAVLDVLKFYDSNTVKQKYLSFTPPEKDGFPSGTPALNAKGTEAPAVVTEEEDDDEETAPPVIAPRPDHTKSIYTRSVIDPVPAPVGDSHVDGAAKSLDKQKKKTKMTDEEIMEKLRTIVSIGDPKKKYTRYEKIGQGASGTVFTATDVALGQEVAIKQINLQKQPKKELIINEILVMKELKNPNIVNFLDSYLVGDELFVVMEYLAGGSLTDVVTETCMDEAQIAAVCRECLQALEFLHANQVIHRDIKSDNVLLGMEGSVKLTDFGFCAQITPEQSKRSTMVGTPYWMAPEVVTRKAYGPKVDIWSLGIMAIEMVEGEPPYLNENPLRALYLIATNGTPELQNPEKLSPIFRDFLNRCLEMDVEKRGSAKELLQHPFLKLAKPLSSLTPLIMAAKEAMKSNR
Protocol: as §1, §2, §3, §4, §5

PAK4 = PAK4 (Homo sapiens, UniProt O96013); assay: Z'Lyte fluorescence-based (FRET) kinase assay, PAK4; conditions: 5 μM ATP (Km apparent), 1 hr room temperature, 1% DMSO
Chain of PAK4 (O96013 whole entry): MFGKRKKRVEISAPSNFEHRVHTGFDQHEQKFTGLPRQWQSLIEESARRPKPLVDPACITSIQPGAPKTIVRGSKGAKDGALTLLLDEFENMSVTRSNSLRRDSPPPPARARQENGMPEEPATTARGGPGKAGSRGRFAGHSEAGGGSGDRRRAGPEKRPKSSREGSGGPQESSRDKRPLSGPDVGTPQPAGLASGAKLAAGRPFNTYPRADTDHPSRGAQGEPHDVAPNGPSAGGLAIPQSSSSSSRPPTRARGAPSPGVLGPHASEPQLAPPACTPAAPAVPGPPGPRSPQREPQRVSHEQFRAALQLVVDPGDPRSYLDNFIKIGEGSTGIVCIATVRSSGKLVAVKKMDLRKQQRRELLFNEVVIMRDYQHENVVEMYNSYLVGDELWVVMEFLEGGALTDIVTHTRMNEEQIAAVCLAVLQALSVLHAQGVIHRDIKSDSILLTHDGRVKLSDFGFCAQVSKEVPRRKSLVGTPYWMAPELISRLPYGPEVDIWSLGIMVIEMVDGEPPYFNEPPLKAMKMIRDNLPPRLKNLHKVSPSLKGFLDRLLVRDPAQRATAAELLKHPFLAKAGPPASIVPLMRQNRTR
Protocol: as §1, §2, §3, §4, §5

PAK3 = PAK3 (Homo sapiens, UniProt O75914); assay: Z'Lyte fluorescence-based (FRET) kinase assay, PAK3; conditions: 100 μM ATP (Km apparent), 1 hr room temperature, 1% DMSO
Chain of PAK3 (O75914 whole entry): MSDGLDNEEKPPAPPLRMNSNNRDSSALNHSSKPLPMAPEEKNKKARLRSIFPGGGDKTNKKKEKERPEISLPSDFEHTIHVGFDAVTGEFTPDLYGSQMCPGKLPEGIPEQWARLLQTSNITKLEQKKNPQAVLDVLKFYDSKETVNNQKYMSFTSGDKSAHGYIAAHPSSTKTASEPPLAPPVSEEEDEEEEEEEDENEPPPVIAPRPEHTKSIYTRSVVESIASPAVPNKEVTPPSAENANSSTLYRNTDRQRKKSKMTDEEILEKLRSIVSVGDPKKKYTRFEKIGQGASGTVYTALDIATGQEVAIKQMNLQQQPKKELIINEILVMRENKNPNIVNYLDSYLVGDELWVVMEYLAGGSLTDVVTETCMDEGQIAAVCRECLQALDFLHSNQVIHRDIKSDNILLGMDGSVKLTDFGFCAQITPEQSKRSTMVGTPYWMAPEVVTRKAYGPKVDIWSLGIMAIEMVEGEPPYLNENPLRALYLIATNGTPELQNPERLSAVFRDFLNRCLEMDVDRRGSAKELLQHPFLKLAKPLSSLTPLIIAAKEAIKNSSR
Protocol: as §1, §2, §3, §4, §5

PAK1 = PAK1 (Homo sapiens, UniProt Q13153); assay: Z'Lyte fluorescence-based (FRET) kinase assay, PAK1; conditions: 50 μM ATP (Km apparent), 1 hr room temperature, 1% DMSO
Chain of PAK1 (Q13153 whole entry): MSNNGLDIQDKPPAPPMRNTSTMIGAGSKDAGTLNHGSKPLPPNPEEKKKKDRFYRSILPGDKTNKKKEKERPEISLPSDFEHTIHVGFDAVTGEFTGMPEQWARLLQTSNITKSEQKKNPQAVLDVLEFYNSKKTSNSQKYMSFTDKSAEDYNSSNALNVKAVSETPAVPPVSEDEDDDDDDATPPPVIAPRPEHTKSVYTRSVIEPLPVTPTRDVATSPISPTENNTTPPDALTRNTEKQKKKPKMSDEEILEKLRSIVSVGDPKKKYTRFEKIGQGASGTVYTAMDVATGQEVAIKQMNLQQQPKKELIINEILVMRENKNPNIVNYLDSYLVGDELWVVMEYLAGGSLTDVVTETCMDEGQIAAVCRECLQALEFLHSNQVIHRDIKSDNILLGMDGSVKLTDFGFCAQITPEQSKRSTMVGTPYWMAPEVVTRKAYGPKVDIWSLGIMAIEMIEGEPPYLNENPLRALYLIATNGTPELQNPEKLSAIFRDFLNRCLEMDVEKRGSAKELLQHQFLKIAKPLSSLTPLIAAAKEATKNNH
Protocol: as §1, §2, §3, §4, §5

Compound | PAK inhibitor type (isoform profile) (PAK1, PAK2, PAK3, PAK-4) | IC50 (PAK2) | IC50 (PAK4) | IC50 (PAK3) | IC50 (PAK1)
CCOc1ccccc1Cn1c(=O)ccc2cnc(Nc3ccc(N4CCN(C)CC4)cc3)nc21 [Compound 64] | inhibits all three Group I PAK isoforms (PAK1, 2 and PAK3) with equal or similar potency |  |  |  | 
CN1CCN(c2ccc(Nc3ncc4ccc(=O)n(Cc5c(Cl)cccc5-c5cccs5)c4n3)cc2)CC1 [Compound 83] |  | > 10 µM | > 10 µM | > 10 µM | 1 to 10 µM
CN1CCN(c2ccc(Nc3ncc4ccc(=O)n(Cc5ccccc5C(F)(F)F)c4n3)cc2)CC1 [Compound 44] | mixed PAK1/PAK2/PAK3/PAK-4 inhibitor |  |  |  | 
CN(c1ccc(Nc2ncc3ccc(=O)n(Cc4ccccc4C(F)(F)F)c3n2)cc1)C1CCCNC1 (stereo not drawn) [Compound 14] | mixed PAK1/PAK2/PAK3/PAK-4 inhibitor |  |  |  | 
CN1CCN(c2ccc(Nc3ncc4ccc(=O)n(CCc5ccccc5)c4n3)cc2)CC1 [Compound 51] | mixed PAK1/PAK2/PAK-4 inhibitor |  |  |  | 
CN(C)CCOc1ccc(Nc2nccc(-c3ccc(NCCN)nc3)n2)cc1 [Compound 96] |  | 1 to 10 µM | 1 to 10 µM |  | 1 to 10 µM
CN1CCN(CCNc2ccc(-c3ccnc(Nc4ccc(N5CCN(C)CC5)cc4)n3)cn2)CC1 [Compound 103] |  | > 10 µM | > 10 µM |  | 1 to 10 µM
O=c1ccc2cnc(Nc3ccc(OC4CCCNC4)cc3)nc2n1Cc1ccccc1C(F)(F)F (stereo not drawn) [Compound 15] | mixed PAK1/PAK2/PAK3/PAK-4 inhibitor |  |  |  | 
CN1CCN(c2ccc(Nc3ncc4ccc(=O)n(Cc5ccccc5SC(F)(F)F)c4n3)cc2)CC1 [Compound 45] | mixed PAK1/PAK2/PAK3/PAK-4 inhibitor |  |  |  | 
CN1CCN(c2ccc(Nc3nccc(-c4ccc(N(C)CCN)nc4)n3)cc2)CC1 [Compound 110] |  | 1 to 10 µM | 1 to 10 µM | > 10 µM | 1 to 10 µM
Cc1cccc(Cl)c1Cn1c(=O)ccc2cnc(Nc3ccc(N4CCN(C)CC4)cc3)nc21 [Compound 67] |  | 1 to 10 µM | < 1 µM | 1 to 10 µM | < 1 µM
CN1CCN(c2ccc(Nc3ncc4ccc(=O)n(C5CCc6ccccc6C5)c4n3)cc2)CC1 (stereo not drawn) [Compound 19] | mixed PAK1/PAK2/PAK3/PAK-4 inhibitor |  |  |  | 
CSc1cccc(F)c1Cn1c(=O)ccc2cnc(Nc3ccc(N4CCN(C)CC4)cc3)nc21 [Compound 91, 8-(2-fluoro-6-(methylthio)benzyl)-2-(4-(4-methylpiperazin-1-yl)phenylamino)pyrido[2,3-d]pyrimidin-7(8H)-one] | mixed PAK1/PAK2/PAK3/PAK-4 inhibitor | < 1 µM |  |  | 
CN1CCN(c2ccc(Nc3nccc(-c4ccc(NCCCN)nc4)n3)cc2)CC1 [Compound 98] | PAK1 inhibitor | 1 to 10 µM | 1 to 10 µM |  | < 1 µM
COc1ccccc1Cn1c(=O)ccc2cnc(Nc3ccc(N4CCN(C)CC4)cc3)nc21 [Compound 36] | PAK1 inhibitor |  |  |  | 
CN1CCN(c2ccc(Nc3ncc4ccc(=O)n(C5CCCC5)c4n3)cc2)CC1 [Compound 2] | PAK1 inhibitor |  |  |  | 
O=c1ccc2cnc(Nc3ccc(N4CCNCC4)c(F)c3)nc2n1C1CCc2ccccc2C1 (stereo not drawn) [Compound 23] | mixed PAK1/PAK2/PAK3/PAK-4 inhibitor |  |  |  | 
O=c1ccc2cnc(Nc3ccc(OC4CCNCC4)cc3)nc2n1Cc1ccccc1C(F)(F)F [Compound 13] | mixed PAK1/PAK2/PAK3/PAK-4 inhibitor |  |  |  | 
CN1CCN(c2ccc(Nc3ncc4ccc(=O)n(Cc5c(F)cccc5C(F)(F)F)c4n3)cc2)CC1 [Compound 60] | mixed PAK1/PAK2/PAK3/PAK-4 inhibitor | < 1 µM |  |  | 
CN1CCN(c2ccc(Nc3ncc4ccc(=O)n(Cc5ccccc5OC(F)F)c4n3)cc2)CC1 [Compound 46] | mixed PAK1/PAK2/PAK3/PAK-4 inhibitor |  |  |  | 

Compound | PAK inhibitor type (isoform profile) (PAK1, PAK2, PAK3, PAK-4) | IC50 (PAK2) | IC50 (PAK4) | IC50 (PAK3) | IC50 (PAK1)
CCCNc1ccc(-c2ccnc(Nc3ccc(N4CCN(C)CC4)cc3)n2)cn1 [Compound 105] |  | 1 to 10 µM | 1 to 10 µM |  | 1 to 10 µM
CN1CCN(c2ccc(Nc3ncc4ccc(=O)n(C5CCc6ccccc65)c4n3)cc2)CC1 (stereo not drawn) [Compound 7] | PAK1 inhibitor |  |  |  | 
O=c1ccc2cnc(Nc3ccc(N4CCNCC4)c(F)c3)nc2n1Cc1c(Cl)cccc1C1CC1 [Compound 86] | inhibits all three Group I PAK isoforms (PAK1, 2 and PAK3) with equal or similar potency | < 1 µM |  |  | 
CN(C)CCNc1ccc(-c2ccnc(Nc3ccc(N4CCN(C)CC4)cc3)n2)cn1 [Compound 101] |  | 1 to 10 µM | 1 to 10 µM |  | 1 to 10 µM
O=c1ccc2cnc(Nc3ccc(N4CCNCC4)c(F)c3)nc2n1C1Cc2ccccc2C1 [Compound 22] | mixed PAK1/PAK2/PAK-4 inhibitor |  |  |  | 
CN1CCCC(Nc2ccc(Nc3ncc4ccc(=O)n(Cc5ccccc5C(F)(F)F)c4n3)cc2)C1 (stereo not drawn) [Compound 63] | mixed PAK1/PAK2/PAK3/PAK-4 inhibitor |  |  |  | 
CN1CCN(c2ccc(N(C)c3nccc(-c4ccc(NCCN)nc4)n3)cc2)CC1 [Compound 114] |  | > 10 µM | > 10 µM |  | > 10 µM
CN1CCN(c2ccc(Nc3nccc(-c4ccc(NCCN5CCOCC5)nc4)n3)cc2)CC1 [Compound 99] |  | > 10 µM | 1 to 10 µM |  | 1 to 10 µM
COc1ccc(F)cc1Cn1c(=O)ccc2cnc(Nc3ccc(N4CCN(C)CC4)cc3)nc21 [Compound 56] | PAK1 inhibitor |  |  |  | 
CN1CCN(c2ccc(Nc3ncc4ccc(=O)n(Cc5cccc(Cl)c5)c4n3)cc2)CC1 [Compound 34] |  | > 10 µM | > 10 µM |  | 1 to 10 µM
Cc1cc(Nc2nccc(-c3ccc(NCCN)nc3)n2)ccc1N1CCN(C)CC1 [Compound 106] | mixed PAK1/PAK-4 inhibitor | 1 to 10 µM |  |  | 
O=c1c(-c2ccccc2)cc2cnc(Nc3ccc(NC4CCCNC4)cc3)nc2n1Cc1ccccc1C(F)(F)F (stereo not drawn) [Compound 121] | inhibits all three Group I PAK isoforms (PAK1, 2 and PAK3) with equal or similar potency |  |  |  | 
CN(C)CCOc1ccc(-c2ccnc(Nc3ccc(N4CCN(C)CC4)cc3)n2)cn1 [Compound 102] |  | > 10 µM | > 10 µM |  | 1 to 10 µM
CN1CCN(c2ccc(Nc3ncc4ccc(=O)n(Cc5ccccc5-n5cccn5)c4n3)cc2)CC1 [Compound 55] | PAK1 inhibitor |  |  |  | 
CN1CCN(c2ccc(Nc3ncc4ccc(=O)n(Cc5ccccc5OC(F)(F)F)c4n3)cc2)CC1 [Compound 43] | mixed PAK1/PAK2 inhibitor |  |  |  | 
O=c1c(-c2ccccc2)cc2cnc(Nc3ccc(N4CCNCC4)cc3)nc2n1Cc1ccccc1C(F)(F)F [Compound 120] | inhibits all three Group I PAK isoforms (PAK1, 2 and PAK3) with equal or similar potency | < 1 µM |  |  | 
CN1CCN(c2ccc(Nc3ncc4ccc(=O)n(C5CCC(C)(C)c6ccccc65)c4n3)cc2)CC1 (stereo not drawn) [Compound 21] | mixed PAK1/PAK2 inhibitor |  |  |  | 
CN1CCN(c2ccc(Nc3ncc4ccc(=O)n(C5Cc6ccccc6C5)c4n3)cc2)CC1 [Compound 18] | mixed PAK1/PAK-4 inhibitor |  |  |  | 
CN1CCN(c2ccc(Nc3ncc4ccc(=O)n(Cc5ccccc5Cl)c4n3)cc2)CC1 [Compound 33] | mixed PAK1/PAK2 inhibitor |  |  |  | 
CN1CCN(c2ccc(Nc3nccc(-c4ccc(Cl)nc4)n3)cc2)CC1 [Compound 97] |  | > 10 µM | > 10 µM |  | 1 to 10 µM
